The values that follow come from PubChem BioAssay (NCI).

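In this assay, cells in 96-well plates receive the compound at five concentrations for 48 hours. Endpoints are linearly interpolated between the surrounding concentrations. Here, GI50 denotes the concentration required for 50% inhibition of growth. Definition used: TGI = concentration required for complete inhibition of growth.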

Common to all, as to assay: inhibition of tumour cell growth, NCI panel, 48 h
Assay [1] deals with DMS 273 small cell lung.
Assay [2] has as its system SF-539 CNS.
The subject of assay [3] is KM20L2 colon.
The subject of assay [4] is SF-295 CNS.
Assay [5] concerns U251 CNS.
For assay [6], the system named is M19-MEL melanoma.
For assay [7], the system named is NCI-H522 lung.
Assay [8] has as its system HL-60(TB) leukemia.
Assay [9] deals with HT29 colon.
The subject of assay [10] is HOP-18 NSCLC.
Assay [11] relates to MCF7 breast.
For assay [12], the system named is NCI/ADR-RES ovarian.

Turning to `CN1C/C(=C\c2ccccc2)C2=NN(C(N)=S)[C@H](c3ccccc3)[C@@H]2C1`, the TGI in assay [1], in [2], in assay [3], in assay [4], in assay [5] and in assay [6] was above 100 µM throughout. The values for the TGI in assay [7], in assay [8] and in [9] were above 100 µM, 54.8 µM and above 100 µM, respectively.
For the compound `CCCC(O)c1ccc2[nH]c3c(C)cc([N+](=O)[O-])c(C)c3c2c1` (centres undefined), the TGI in assay [10], in assay [1], in [2], in [4], in [6] and in assay [7] was above 100 µM throughout. Also, the TGI in assay [8] and in assay [9] was above 100 µM throughout.
On to `COc1cc2c(c(O)c1OC)C(O)C1CCC(=O)N1C2c1ccc2c(c1)OCO2` (centres undefined), for which the TGI in assay [11], in assay [2], in assay [12], in assay [4], in assay [5] and in [7] was above 100 µM each time. Moreover, the TGI in assay [8] and in assay [9] was above 100 µM in each case.
For the compound `O=C(c1ccccc1)c1nn(-c2cccc(Cl)c2)c2nc3nc(-c4ccccc4)cc(=O)n3nc12`, the GI50 in [11], in [2], in [12], in assay [4], in assay [5] and in assay [7] was above 25 µM each time. In addition, the GI50 is 5.1 µM in [8] and above 25 µM in assay [9]. Besides, the TGI in assay [11], in assay [2], in assay [12], in assay [4], in assay [5] and in assay [7] was above 25 µM throughout. Moreover, the results for the TGI in assay [8] and in assay [9] were 16.7 µM and above 25 µM, respectively.
Turning to `C=CCCCCCCCCCOC1C=CC(O)C(CO)O1` (centres undefined), the TGI in assay [11], in assay [2], in assay [12], in assay [4], in [5] and in [7] was above 100 µM throughout. Moreover, the TGI came to 65.5 µM in assay [8] and 46.4 µM in [9].
As to `c1cc(CSP234N5CCN2CCN3CCN4CC5)cc(CSP234N5CCN2CCN3CCN4CC5)c1`, the TGI in assay [11] is 68.6 µM; in assay [2], 55.5 µM; in assay [12], above 100 µM; in assay [4], 46.2 µM; in [5] it was 56.2 µM; in assay [7], 43.1 µM. Besides, the TGI in [8] came to 28.1 µM; in [9] it was 61 µM.
On to `C/C(=C\COP(=O)(O)OP(=O)(O)O)CC/C=C(\C)CNc1c(F)c(F)c(F)c(F)c1F`, for which the TGI in [11], in assay [2], in [12], in assay [4], in assay [5] and in [7] was above 100 µM throughout. Further, the TGI in assay [8] and in assay [9] was above 100 µM in each case.
Consider `NS(=O)(=O)c1ccc(Nc2c3ccccc3nc3c(C(=O)NC(CO)(CO)CO)cccc23)cc1`, for which the TGI in assay [11] was 0.106 µM; in assay [2], 0.407 µM; in assay [12] it was above 1 µM; in [4], above 1 µM; in [5], 0.457 µM; in [7], 0.306 µM. The values for the TGI in [8] and in assay [9] were 0.642 µM and 0.45 µM, respectively.
Take `COc1ccc(/C=C(\C#N)c2ccccn2)cc1OC`: the TGI in [11] was 72.6 µM; in assay [2], above 100 µM; in assay [12], 55.7 µM; in [4], 85.3 µM; in assay [5] it was 42 µM; in [7], above 100 µM. Further, the TGI in assay [8] and in assay [9] was above 100 µM in each case.
Take `O=C1c2ccccc2CC12Cc1ccc3c(c1C2=O)CCCC3` (centres undefined): the TGI in assay [11], in [2], in assay [12], in [4], in assay [5] and in assay [7] was above 100 µM throughout. For the same compound, the TGI in [8] and in [9] was above 100 µM throughout.
Take `CC(C)C1OC(=O)C(Cc2ccccc2)N(C)C(=O)C(C(C)C)OC(=O)C(Cc2ccccc2)N(C)C(=O)C(C(C)C)OC(=O)C(Cc2ccccc2)N(C)C1=O` (centres undefined): the TGI came to 1.79 µM in [11]; 3.47 µM in assay [2]; 2.36 µM in assay [12]; 1.79 µM in assay [4]; 1.77 µM in [5]; 2.12 µM in assay [7]. Further, the TGI is 1.21 µM in assay [8] and 2.07 µM in [9].
For the compound `CN(CCNC(=O)c1nn(C)c2c1Cc1ccccc1-2)CCNC(=O)c1nn(C)c2c1Cc1ccccc1-2`, the TGI in assay [11] is 26 µM; in [2], 27.6 µM; in assay [12], 70.4 µM; in assay [4] it was 30.8 µM; in assay [5] it was 28.9 µM; in [7] it was 30 µM. The TGI in assay [8] turned out to be 29 µM; in assay [9], 33.5 µM.
Consider `O=C1CC2(CCN(Cc3ccccc3)CC2)C(=O)N1N1CCCCC1`, for which the TGI in assay [11], in assay [2], in [12], in [4], in [5] and in assay [7] was above 100 µM in each case. The TGI in assay [8] and in assay [9] was above 100 µM throughout.
`O=c1[nH]nc(-c2cccc([N+](=O)[O-])c2)[nH]1`: the TGI in assay [11], in assay [2], in assay [12], in assay [4], in assay [5] and in assay [7] was above 100 µM in each case. The TGI in assay [8] and in [9] was above 100 µM in each case.
As to `C=CCSC1=N/C(=C\c2ccc(C)cc2)C(=O)N1CC=C`, the TGI in assay [11] was 55.5 µM; in [2] it was above 100 µM; in [12], above 100 µM; in assay [4], above 100 µM; in [5], 57.1 µM; in [7], above 100 µM. Besides, the values for the TGI in assay [8] and in [9] were 28.1 µM and 34.1 µM, respectively.
In the case of `COC1=CC(=O)[C@@]2(C)C(C)[C@H](c3ccccc3)[C@H]2C1=O` (some centres undefined), the TGI in assay [1], in assay [2], in assay [3], in assay [4], in [5] and in [6] was above 100 µM each time. Besides, the TGI in [7], in [8] and in assay [9] was above 100 µM each time.
`O=S(c1ccc(O)cc1)c1ccc(O)cc1`: the TGI in [1], in assay [2], in assay [3], in assay [4], in assay [5] and in [6] was above 100 µM in each case. For the same compound, the TGI in assay [7], in assay [8] and in [9] was above 100 µM each time.
For `O=C(OC1C#CCSCC#C/C=C\1)c1ccc2c(c1)C(=O)c1ccccc1C2=O` (centres undefined), the TGI was above 100 µM in assay [11]; 40.7 µM in [2]; above 100 µM in assay [12]; above 100 µM in assay [4]; 55.9 µM in [5]; 62.7 µM in assay [7]. Also, the TGI in [8] and in assay [9] was above 100 µM each time.
Consider `C=CCN(C(C)=O)c1cc(OCc2ccccc2)c2c(c1)c(C)cn2S(=O)(=O)c1ccccc1`, for which the TGI in [11] was 31 µM; in assay [2] it was above 100 µM; in assay [12], above 100 µM; in [4] it was above 100 µM; in [5], above 100 µM; in assay [7] it was above 55.3 µM. Also, the TGI in assay [8] and in assay [9] was above 100 µM throughout.
On to `CC1(C)OCC(/C=C\C(O)CC2(C)OCCO2)CO1` (centres undefined), for which the TGI in [11], in assay [2], in [12], in assay [4], in assay [5] and in assay [7] was above 100 µM throughout. Also, the TGI in assay [8] and in assay [9] was above 100 µM throughout.
With `CC(=O)N(C(=O)CC(=O)N1N=C(C)C(N=Nc2cccc([N+](=O)[O-])c2)C1=O)c1ccc(Cl)cc1` (centres undefined), the TGI in [11], in assay [2], in [12], in assay [4], in assay [5] and in assay [7] was above 10 µM each time. Also, the TGI in assay [8] and in assay [9] was above 10 µM in each case.
For the compound `COC(=O)c1sc2c(c1C(=O)OC)C(=Nc1ccc(OC)cc1)SC2=Nc1ccc(OC)cc1`, the TGI in assay [11] is 2.47 µM; in assay [2], 0.889 µM; in assay [12] it was 3.47 µM; in assay [4] it was 3.42 µM; in assay [5] it was 1.03 µM; in assay [7], 2.45 µM. For the same compound, the TGI was found to be 0.552 µM in assay [8] and 1.73 µM in assay [9].
Take `O=C1c2cccc3cc([N+](=O)[O-])cc(c23)C(=O)N1c1ccc(OCCN2CCCC2)cc1`: the TGI in [11] is 38.3 µM; in assay [2], 29.5 µM; in assay [12], above 100 µM; in assay [4] it was 41.1 µM; in assay [5] it was 41.3 µM; in assay [7] it was 31.7 µM. The TGI in [8] amounted to 29 µM; in [9], 28.3 µM.
Take `Cc1nc2nnc(CCCCCCCCc3nnc4nc(C)[nH]n34)n2[nH]1`: the TGI in assay [11], in assay [2], in assay [12], in [4], in assay [5] and in assay [7] was above 100 µM in each case. Moreover, the TGI in [8] and in assay [9] was above 100 µM throughout.
For the compound `O=C(O)COc1c(Cl)cc(Cl)c(C(c2c(Cl)cc(Cl)c(OCC(=O)O)c2Cl)C(Cl)(Cl)Cl)c1Cl`, the TGI is above 100 µM in assay [11]; above 100 µM in [2]; above 100 µM in [12]; 51.9 µM in [4]; 77.4 µM in assay [5]; above 100 µM in [7]. Moreover, the TGI in [8] amounted to 59.9 µM; in [9], 92.6 µM.
Regarding `CCOc1c2c(cc3c1C(=O)c1c(OC)cccc1C3=O)C=C(OC)CC2`, the TGI in assay [11], in assay [2], in [12], in assay [4], in assay [5] and in [7] was above 25 µM throughout. In addition, the values for the TGI in assay [8] and in assay [9] were 13.2 µM and above 25 µM, respectively.
In the case of `COc1ccc(Cl)cc1NC(=O)O/N=C(\Cl)C(C)C`, the TGI was 38.6 µM in assay [11]; 29.4 µM in assay [2]; 16.6 µM in assay [12]; 33.9 µM in assay [4]; above 59.4 µM in assay [5]; 2.46 µM in assay [7]. Further, the TGI is above 24.5 µM in [8] and 43.8 µM in [9].
For `CN1N=C(c2ccncc2)OC1c1ccc(C(F)(F)F)cc1` (centres undefined), the TGI in assay [11], in assay [2], in [12], in assay [4], in assay [5] and in assay [7] was above 100 µM throughout. Besides, the TGI in assay [8] and in assay [9] was above 100 µM each time.
`Cc1[nH]c2c(C)c3c([nH]c4ccc(Cl)cc43)c(C)c2c(=O)c1C`: the TGI is above 100 µM in assay [10]; 6.9 µM in assay [11]; 96.1 µM in assay [1]; 36 µM in [2]; 60.5 µM in [12]; 36.2 µM in assay [4]. In addition, the TGI in assay [5] is 23.3 µM; in assay [6], 54.9 µM; in assay [7], 12.9 µM; in assay [8], 9.64 µM; in assay [9], 12.8 µM.
As to `COc1ccc(/C=N/n2c(-c3ccccc3)n[nH]c2=O)c(OC)c1`, the TGI in assay [11] is above 100 µM; in assay [2], above 84.9 µM; in [12], above 73.9 µM; in [4], above 100 µM; in assay [5], above 100 µM; in [7], above 74.3 µM. The results for the TGI in assay [8] and in assay [9] were above 100 µM and 76.3 µM, respectively.
